The text below walks through data of US20040248869A1, “Method for finding novel active ingredients having androgen-type properties” (priority 2001, published 2004).

One assay concerns epidermis. The conditions noted are these: topical application, axillae of relatively old males; Kligman et al.; cited from earlier work.
The test system of another assay is embryonal fibroblasts. In words: Synthesis of dermal macromolecules in fibroblast cultures in collagen gel (embryonal fibroblasts). The class given is cell-based, human. The conditions noted are these: increase based on the blank value (absence of hormone), average of the two measuring conditions.
The next assay concerns male adult fibroblasts. The conditions noted are these: male adult fibroblasts (cultures 2-6); increase based on the blank value; average of the two measuring conditions.
A further assay concerns human skin cells. The note with it: differentiation of human skin cells; cited from earlier work.
The test system of the next assay is genital fibroblasts. The conditions noted are these: Loire et al., Sultan et al.; cited from earlier work.

Regarding `CCC(=O)O[C@H]1CC[C@H]2[C@@H]3CCC4=CC(=O)CC[C@]4(C)[C@H]3CC[C@]12C` [testosterone propionate], the “strength of the epidermis” value with epidermis is given as “increases the strength of the epidermis”.
For `C[C@]12CC[C@H]3[C@@H](CCC4=CC(=O)CC[C@@]43C)[C@@H]1CC[C@@H]2O` [T (soluble), testosterone], in the assay with embryonal fibroblasts, the “Increase in the synthesis of macromolecules: Chondroitin sulfate” value is “+23 %-rel”, the “Increase in the synthesis of macromolecules: Collagen” value is on record as “+17 %-rel” and the “Increase in the synthesis of macromolecules: Elastin” value (“Increase in the synthesis … Elastin” below) is listed as “+11 %-rel”.
With `C[C@]12CC[C@H]3[C@@H](CCC4=CC(=O)CC[C@@]43C)[C@@H]1CC[C@@H]2O` [T, testosterone], in the assay with male adult fibroblasts, the “Increase in the synthesis of macromolecules: Chondroitin sulfate” value is listed as “+537 %-rel”, the “Increase in the synthesis … Elastin” value is on record as “+2753 %-rel” and the “Increase in the synthesis of macromolecules: Keratan sulfate” value was “+83 %-rel”. The “reduction of granular cells, keratohyalin granules and keratinosomes” value in the assay with human skin cells was “does counteract the reduction”.
In the case of `C[C@]12CCC(=O)C[C@@H]1CC[C@@H]1[C@@H]2CC[C@]2(C)[C@@H](O)CC[C@@H]12` [DHT, dihydrotestosterone], the “DNA or protein distribution in the target cell” value in the assay on genital fibroblasts is listed as “does not affect”. In the assay with male adult fibroblasts, the “Increase in the synthesis … Elastin” value is “+552 %-rel” and the “Increase in the synthesis of macromolecules: Heparan sulfate” value is given as “+486 %-rel”.
